Results on 20 compounds are retold here after ChEMBL document CHEMBL2177051.

The source made the active and inactive calls. The calls are words filed in the database; no cut-off is given here.

What all share (settings): Homo sapiens
The subject of experiment [1] is HEK293. Briefly: Inhibition of proteasome beta5 in HEK cell lysates at 1 to 100 uM after 1 hr by MV151 competitive SDS-PAGE analysis.
In experiment [2] the test system is HEK293. Briefly: Inhibition of proteasome beta2 in HEK cell lysates at 1 to 100 uM after 1 hr by MV151 competitive SDS-PAGE analysis.
Experiment [3] deals with HEK293. The experiment in a line: Inhibition of proteasome beta1 in HEK cell lysates at 1 to 100 uM after 1 hr by MV151 competitive SDS-PAGE analysis.
Experiment [4] deals with HEK293. Briefly: Inhibition of proteasome beta2 in HEK cell at 50 uM after 3 hrs by MV151 competitive SDS-PAGE analysis. It is filed as cell-based.
For experiment [5], the system named is HEK293. The experiment in a line: Inhibition of proteasome beta1 in HEK cell at 50 uM after 3 hrs by MV151 competitive SDS-PAGE analysis. In kind it is cell-based.
The test system of experiment [6] is HEK293. The experiment in a line: Inhibition of proteasome beta5 in HEK cell at 5 uM after 3 hrs by MV151 competitive SDS-PAGE analysis. In kind it is cell-based.

With `CC(C)C[C@@H](CS(=O)(=O)F)NC(=O)[C@@H](N)[C@@H](C)OCc1ccccc1`, the inhibition entry in experiment [1], in experiment [2] and in experiment [3] was “inactive” throughout.
Turning to `CC(C)C[C@@H](CS(=O)(=O)F)NC(=O)[C@H](CC(C)C)NC(=O)[C@H](CC(C)C)NC(=O)[C@H](CC(C)C)NC(=O)OCc1ccccc1`, the inhibition entry in experiment [4], in experiment [5], in experiment [6], in experiment [1], in experiment [2] and in experiment [3] was “Active” in each case.
With `CC[C@H](C)[C@H](NC(C)=O)C(=O)N[C@H](C(=O)N[C@H](C(=O)N[C@@H](CC(C)C)CS(=O)(=O)F)[C@@H](C)O)[C@@H](C)CC`, the inhibition entry in experiment [1], in experiment [2] and in experiment [3] was “Active” in each case.
`CC(C)C[C@@H](CS(=O)(=O)F)NC(=O)[C@H](CC(C)C)NC(=O)[C@H](CC(C)C)NC(=O)[C@@H](N)CC(C)C`: the inhibition result in experiment [1], in experiment [2] and in experiment [3] was “Active” each time.
As for `CC[C@H](C)[C@H](NC(=O)CN=[N+]=[N-])C(=O)N[C@H](C(=O)N[C@H](C(=O)N[C@@H](CC(C)C)CS(=O)(=O)F)[C@@H](C)O)[C@@H](C)CC`, the inhibition result in experiment [1], in experiment [2] and in experiment [3] was “Active” each time.
Take `CC[C@H](C)[C@H](NC(=O)CN=[N+]=[N-])C(=O)N[C@H](C(=O)N[C@H](C(=O)N[C@@H](CC(C)C)CS(=O)(=O)F)[C@@H](C)OC(C)=O)[C@@H](C)CC`: the inhibition result in experiment [1], in experiment [2] and in experiment [3] was “Active” each time.
`CC[C@H](C)[C@H](N)C(=O)N[C@H](C(=O)N[C@@H](CC(C)C)CS(=O)(=O)F)[C@@H](C)O`: the inhibition result in experiment [1], in experiment [2] and in experiment [3] was “Active” each time.
Regarding `CC[C@H](C)[C@H](N)C(=O)N[C@H](C(=O)N[C@@H](CC(C)C)CS(=O)(=O)F)[C@@H](C)OCc1ccccc1`, the inhibition entry in experiment [1], in experiment [2] and in experiment [3] was “Active” in each case.
In the case of `CC(=O)N[C@@H](CC(C)C)C(=O)N[C@@H](CC(C)C)C(=O)N[C@@H](CC(C)C)C(=O)N[C@@H](CC(C)C)CS(=O)(=O)F`, the inhibition result in experiment [1], in experiment [2] and in experiment [3] was “Active” each time.
`CC(C)C[C@@H](CS(=O)(=O)F)NC(=O)[C@H](CC(C)C)NC(=O)[C@H](CC(C)C)NC(=O)[C@H](Cc1ccccc1)N=[N+]=[N-]`: the inhibition entry in experiment [1], in experiment [2] and in experiment [3] was “Active” throughout.
On to `CC(C)C[C@@H](CS(=O)(=O)F)NC(=O)[C@H](CC(C)C)NC(=O)[C@H](CC(C)C)NC(=O)OC(C)(C)C`, for which the inhibition result in experiment [1], in experiment [2] and in experiment [3] was “Active” throughout.
`CC[C@H](C)[C@H](N)C(=O)N[C@H](C(=O)N[C@H](C(=O)N[C@@H](CC(C)C)CS(=O)(=O)F)[C@@H](C)OCc1ccccc1)[C@@H](C)CC`: the inhibition result in experiment [1], in experiment [2] and in experiment [3] was “Active” throughout.
As to `CC(C)C[C@@H](CS(=O)(=O)F)NC(=O)[C@H](CC(C)C)NC(=O)[C@H](CC(C)C)NC(=O)OCc1ccccc1`, the inhibition entry in experiment [1], in experiment [2] and in experiment [3] was “Active” throughout.
For `CC(C)C[C@@H](CS(=O)(=O)F)NC(=O)[C@@H](N)Cc1ccccc1`, the inhibition result in experiment [1], in experiment [2] and in experiment [3] was “inactive” throughout.
With `CC[C@H](C)[C@H](N)C(=O)N[C@H](C(=O)N[C@H](C(=O)N[C@@H](CC(C)C)CS(=O)(=O)F)[C@@H](C)O)[C@@H](C)CC`, the inhibition result in experiment [1], in experiment [2] and in experiment [3] was “Active” each time.
As for `CC[C@H](C)[C@H](NC(=O)OC(C)(C)C)C(=O)N[C@H](C(=O)N[C@@H](CC(C)C)CS(=O)(=O)F)[C@@H](C)OCc1ccccc1`, the inhibition result in experiment [1], in experiment [2] and in experiment [3] was “Active” each time.
With `CC(C)C[C@@H](CS(=O)(=O)F)NC(=O)[C@H](CC(C)C)NC(=O)[C@@H](N)CC(C)C`, the inhibition result in experiment [1], in experiment [2] and in experiment [3] was “Active” in each case.
As to `CC(C)C[C@@H](CS(=O)(=O)F)NC(=O)[C@H](Cc1ccccc1)NC(=O)c1cnccn1`, the inhibition result in experiment [1], in experiment [2] and in experiment [3] was “inactive” in each case.
Consider `CC[C@H](C)[C@H](NC(C)=O)C(=O)N[C@H](C(=O)N[C@H](C(=O)N[C@@H](CC(C)C)CS(=O)(=O)F)[C@@H](C)OCc1ccccc1)[C@@H](C)CC`, for which the inhibition result in experiment [1], in experiment [2] and in experiment [3] was “Active” throughout.
Regarding `CC[C@H](C)[C@H](NC(=O)OC(C)(C)C)C(=O)N[C@H](C(=O)N[C@H](C(=O)N[C@@H](CC(C)C)CS(=O)(=O)F)[C@@H](C)OCc1ccccc1)[C@@H](C)CC`, the inhibition result in experiment [1], in experiment [2] and in experiment [3] was “Active” throughout.
